In patent US9005646B2, “Compositions for repair of defects in tissues, and methods of making the same” (LifeNet Health, priority 2005, dated 2015):

Columns and labels:
athymic nude mice = test: Osteoinductivity bioassay of irradiated compositions with radioprotectant, implanted into athymic nude mice; format: in vivo; conditions: for Passed Osteoinductivity: radioprotectant added to homogenized fascia slurry of tissue repair composition, post-gamma irradiation, implanted into athymic nude mice
From the text: (§1) Multiple radioprotectants (Table 1) were investigated over a range of concentrations and the handling characteristics of the resultant products were semi-quantitatively analyzed post-gamma irradiation. Those products that passed the semi-quantitative analysis went on to be implanted into athymic nude mice as a bioassay to assess osteoinductivity.
The method to add the radioprotectant was consistent for each radioprotectant investigated. The slurry was made as described in example 1 (heating and blending cycles) and once completed, the radioprotectant of choice was added to the slurry in the form it was supplied from the manufacturer (powder or liquid).

[1] = Semi-quantitative analysis of handling characteristics post-gamma irradiation; format: physicochemical; conditions: putty/paste tissue repair composition; sterilizing dose of gamma irradiation; 100 mM where radioprotectant present
From the text: To meet the current U.S. FDA regulatory standards and market expectations, a product must be sterile to a sterility assurance level of 1×10^−6 (SAL). […] The composition crumbled apart releasing the bone matrix.
In order to manufacture a tissue repair composition, in the form of a putty/paste, having desirable handling characteristics post-irradiation at dose designed to achieve a SAL of 1×10^−6, it was thought that the addition of one or more radioprotectants to the composition would produce a product with the desirable handling properties because the radioprotectant will act as a free radical scavenger during the irradiation sterilization process and would protect the handling characteristics of the putty/paste composition. An addition facet was that the radioprotectant must not negatively interfere with the biological activity over time (shelf life).
as §1

Compound | impact on osteoinductivity (athymic nude mice; 100 mM radioprotectant in composition, after sterilizing dose of gamma irradiation) | Passed Osteoinductivity (athymic nude mice) | handling characteristics after gamma irradiation [1]
N=C(N)NN [Aminoguanidine] | no negative impact | Yes | no negative impact
L-Ascorbic Acid 2-phosphate sesquimagnesium salt | – | Yes | –
L-Ascorbic Acid, salt | – | Yes | –
